Measured values published in patent publication US20080113347A1, “Method for the in Vitro Diagnosis and Prognosis of Demyelinating Diseases, and for the Development of Drugs Against Demyelinating Diseases” (priority 2003, published 2008).

Test system: dusp6 gene expression
Experiment: Differential analysis of dusp6 gene expression in oligodendrocyte cultures with Rat Genome U34 DNA arrays
Format: cell-based
Set-up: key to Change: Increases (I); Decreases (D); undergoes No Change (NC); Marginally Increases (MI); Marginally Decreases (MD); key to Detection: Present (P); Absent (A); Marginal (M)
Details: for SLR (vs control): Signal Log Ratio (log2); for Signal (dusp6, probe set U42627_at): arrays scaled to total intensity 100; for Change: vs control
From the text: Microarrays. The microarrays GeneChip Test 3 (Affymetrix, Santa Clara) were used which allow testing the quality of the RNA prior to the expression analysis with GeneChip Rat Genome U34 set (Affymetrix, Santa Clara), representing 3322 complete gene sequences. The dusp6 gene is represented in the microarray by probe set U42627_at of Affymetrix, which are sense oligonucleotides of 25 nucleotides in length designed on the basis of GeneBank U42627 sequence (Table 1).
Samples. The samples studied corresponded to primary oligodendrocyte cultures obtained from the optic nerve of 12-day old rats. To prevent inter-individual variations, each culture corresponded to a 10-animal cell pool. Treatments were made in duplicate with 10 μM AMPA (α-amino-3-hydroxy-5-methyl-4-isoxazolepropionic acid) or 3 μM kainate. The duration of treatments was 2, 10 and 15 minutes, the cells being collected immediately after treatment in the first two cases and 1 hour after the 15-minute treatment. Treatment for 10 and 15 minutes with AMPA and with kainate causes apoptosis, whereas 2-minute treatment was considered sublethal due to scarce treatment duration. After treatments, the cells were collected in TRIzol® Reagent (Life Technologies) and were stored at −80° C. until total RNA extraction.
The analysis was carried out with total RNA from oligodendrocyte cultures. Each sample corresponded to the mixture of total RNAs from two cultures and were called the following: control: untreated cultured oligodendrocytes ampa 2: oligodendrocytes treated for 2 minutes with 10 μM AMPA and collected after treatment ampa 10: oligodendrocytes treated for 10 minutes with 10 μM AMPA collected after treatment ampa 15: oligodendrocytes treated for 15 minutes with 10 μM AMPA and collected 60 minutes later Kainate 2: oligodendrocytes treated for 2 minutes with 3 μM kainate and collected after treatment Kainate 10: oligodendrocytes treated for 10 minutes with 3 μM kainate and collected after treatment Kainate 15: oligodendrocytes treated for 15 minutes with 3 μM kainate and collected 60 minutes later The total RNA of each one of the cultures was obtained by homogenizing the cells in TRIzol® Reagent (Life Technologies) following the supplier's recommendations. The resulting total RNA was cleaned with the RNeasy Mini kit (QIAGEN) (Chomczynski P. et al., Anal. Biochem., 1987, 162: 156; Chomczynski P., Biotechniques, 1993, 15: 532). 2 μg from each total RNA preparation were used as starting material for the synthesis of biotinylated cRNA with the MessageAmp™ aRNA kit (Ambion).
15 μg of each biotinylated cRNA were fragmented at 94° C. for 35 minutes in a buffer solution containing 40 mM Tris-Acetate (pH 8.1), 100 mM KOAc and 30 mM MgOAc. The fragmented cRNA was mixed with hybridization buffer (10 mM MES, 1M NaCl, 20 mM EDTA, 0.01% Tween 20) and was heated at 99° C. for 5 minutes and subsequently at 45° C. for 5 minutes, to then be loaded into the Affymetrix array. The first array in which hybridization was carried out was Affymetrix Test 3. This array allows testing the quality of the RNA prior to expression analysis in the Affymetrix® GeneChip® Rat Genome U34 set (RG-U34).
For hybridization, the arrays were incubated in a rotary oven at 45° C. for 16 hours and with a constant rotation of 60 rpm.
Washing and staining of each array was carried out in the Affymetrix® Fluidics Station. A washing and staining program was used which included:
The arrays were scanned at 560 nm using a confocal microscope using laser emission (Agilent GeneArray Scanner). Analysis of the intensity readings was carried out with Microarray Suite 5.0 software. To compare the arrays, the latter were scaled to a total intensity of 100.
Differential analysis of the dusp6 gene expression in the oligodendrocytes stimulated with regard to the control was carried out from the array comparison data obtained using the Affymetrix software. […]

[1] = treated 2 minutes (10 μM AMPA or 3 μM kainate), collected after treatment
[2] = treated 10 minutes (10 μM AMPA or 3 μM kainate), collected after treatment
[3] = treated 15 minutes (10 μM AMPA or 3 μM kainate), collected 60 minutes later

Cc1onc(O)c1CC(N)C(=O)O (stereo not drawn) [AMPA, α-amino-3-hydroxy-5-methyl-4-isoxazolepropionic acid]
SLR (vs control) [1]: 0.8
SLR (vs control) [2]: 1.2
SLR (vs control) [3]: 2.1
Ratio (=2^SLR) (fold change vs untreated control, treated 2 minutes (10 μM AMPA or 3 μM kainate), collected after treatment): 1.7 fold
Detection [1]: P
Signal (dusp6, probe set U42627_at) [1]: 75.3
Detection [2]: P
Signal (dusp6, probe set U42627_at) [2]: 101.7
Detection [3]: P
Signal (dusp6, probe set U42627_at) [3]: 149.7
Change [1]: I
Change [2]: I
Change [3]: I
